Results: ChEMBL document CHEMBL1759905, “Nonsteroidal 2,3-dihydroquinoline glucocorticoid receptor agonists with reduced PEPCK activation” (Bioorg Med Chem Lett, 2011)
pIC50, pKi: −log10 of the molar value.

Columns and labels:
[1] = biological target: T1, Mineralocorticoid receptor (Homo sapiens, UniProt P08235); assay: Binding affinity to mineralocorticoid receptor
T1 sequence (P08235 whole entry): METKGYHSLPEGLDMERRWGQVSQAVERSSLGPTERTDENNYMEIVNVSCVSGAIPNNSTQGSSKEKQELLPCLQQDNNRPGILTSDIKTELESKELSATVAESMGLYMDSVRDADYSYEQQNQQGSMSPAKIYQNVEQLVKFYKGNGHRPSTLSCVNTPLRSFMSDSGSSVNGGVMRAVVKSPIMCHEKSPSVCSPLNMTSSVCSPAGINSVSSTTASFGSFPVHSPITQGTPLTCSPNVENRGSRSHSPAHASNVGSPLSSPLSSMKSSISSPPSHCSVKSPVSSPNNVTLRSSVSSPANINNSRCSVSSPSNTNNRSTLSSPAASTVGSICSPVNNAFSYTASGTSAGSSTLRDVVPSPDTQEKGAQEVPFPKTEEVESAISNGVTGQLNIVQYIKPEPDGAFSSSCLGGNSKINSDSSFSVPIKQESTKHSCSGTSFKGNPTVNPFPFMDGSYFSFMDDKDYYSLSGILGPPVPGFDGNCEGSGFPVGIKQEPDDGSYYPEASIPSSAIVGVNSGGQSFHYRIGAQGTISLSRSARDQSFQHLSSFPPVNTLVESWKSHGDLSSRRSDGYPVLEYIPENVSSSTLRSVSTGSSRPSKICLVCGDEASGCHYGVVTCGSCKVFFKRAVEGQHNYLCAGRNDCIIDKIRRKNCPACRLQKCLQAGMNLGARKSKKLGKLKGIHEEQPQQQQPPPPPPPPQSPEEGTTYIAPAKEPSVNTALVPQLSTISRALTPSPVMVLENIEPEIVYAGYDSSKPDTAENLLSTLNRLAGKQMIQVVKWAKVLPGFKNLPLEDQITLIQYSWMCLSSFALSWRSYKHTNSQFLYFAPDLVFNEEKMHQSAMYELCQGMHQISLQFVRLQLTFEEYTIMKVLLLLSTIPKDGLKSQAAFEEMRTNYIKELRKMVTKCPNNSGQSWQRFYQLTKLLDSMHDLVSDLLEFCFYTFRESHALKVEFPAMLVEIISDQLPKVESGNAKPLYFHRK

Glucocorticoid receptor [2] = biological target: T2, Glucocorticoid receptor (Homo sapiens, UniProt P04150); assay: Displacement of radiolabeled Dexamethasone from glucocorticoid receptor expressed in baculovirus
T2 sequence (P04150 whole entry): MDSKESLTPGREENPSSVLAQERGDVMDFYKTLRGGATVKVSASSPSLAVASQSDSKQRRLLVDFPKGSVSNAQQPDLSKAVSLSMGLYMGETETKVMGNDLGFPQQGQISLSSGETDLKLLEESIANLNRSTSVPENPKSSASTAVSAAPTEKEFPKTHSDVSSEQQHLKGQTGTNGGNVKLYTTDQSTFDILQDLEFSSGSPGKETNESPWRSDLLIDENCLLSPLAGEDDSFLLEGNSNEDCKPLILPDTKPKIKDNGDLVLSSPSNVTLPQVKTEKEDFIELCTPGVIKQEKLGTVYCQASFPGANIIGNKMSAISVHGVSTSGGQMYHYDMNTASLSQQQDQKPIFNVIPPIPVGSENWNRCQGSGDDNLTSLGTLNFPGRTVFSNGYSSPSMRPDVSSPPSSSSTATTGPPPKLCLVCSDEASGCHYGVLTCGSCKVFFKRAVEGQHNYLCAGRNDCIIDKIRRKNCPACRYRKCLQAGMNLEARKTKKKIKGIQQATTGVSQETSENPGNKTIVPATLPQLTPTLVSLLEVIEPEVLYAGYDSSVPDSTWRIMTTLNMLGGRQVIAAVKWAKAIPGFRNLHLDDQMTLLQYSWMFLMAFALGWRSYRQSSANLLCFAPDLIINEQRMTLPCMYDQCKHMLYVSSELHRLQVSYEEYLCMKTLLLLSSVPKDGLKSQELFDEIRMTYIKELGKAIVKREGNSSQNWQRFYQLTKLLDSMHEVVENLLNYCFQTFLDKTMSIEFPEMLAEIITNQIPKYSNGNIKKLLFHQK

Glucocorticoid receptor [3] = biological target: T2, Glucocorticoid receptor; assay: Transrepression activity at glucocorticoid receptor in human HepG2 cells assessed as inhibition of TNFalpha/IL1beta-stimulated NFkappaB-dependent E-selectin repression by luciferase reporter gene assay; type: cell-based
[4] = biological target: T3, Glucocorticoid receptor (Homo sapiens) (UniProt P04150); assay: Agonist activity at glucocorticoid receptor in human HepG2 cells co-transfected with GRE assessed as GRE activation by luciferase reporter gene assay relative to Dexamethasone; type: functional, cell-based; parameters: concentration or dose not given beside the values
T3 sequence (whole entry): T2 sequence (P04150 whole entry)

Row | Compound | pKi [1] | pKi (Glucocorticoid receptor [2]) | pIC50 (Glucocorticoid receptor [3]) | Activity [4] [%]
1 | Cc1c[nH]c2c(-c3c(F)cc4c(c3F)/C(=N/OC(C)(C)CO)CC(C)(C)N4)cccc12 | 5.57 | 9.10 | 7.92 | 130
2 | Cc1c[nH]c2c(-c3c(F)cc4c(c3F)/C(=N/OC(C)(C)C)CC(C)(C)N4)cccc12 | 5.80 | 8.66 | 8.25 | 97

More lines, in order of rising pKi [1], values ahead:

Row | pKi [1] | pKi (Glucocorticoid receptor [2]) | pIC50 (Glucocorticoid receptor [3]) | Activity [4] [%] | Compound
3 | 5.55 | 8.57 | 8.31 | 138 | Cc1c[nH]c2c(-c3c(F)cc4c(c3F)/C(=N/OC(C)C)CC(C)(C)N4)cccc12
4 | 5.77 | 8.42 | 8.47 | 150 | CO/N=C1/c2c(cc(F)c(-c3cccc4c(C)c[nH]c34)c2F)NC(C)(C)C1O (racemic)
5 | 5.98 | 8.70 | 8.40 | 97 | CC1(C)C/C(=N\OC(C)(C)C)c2c(cc(F)c(-c3cccc4c(Cl)c[nH]c34)c2F)N1
